{"source": "ChEMBL document CHEMBL3351422", "about": "“Discovery of N-substituted 7-azaindoline derivatives as potent, orally available M1 and M4 muscarinic acetylcholine receptors selective agonists” (Bioorg Med Chem Lett, 2014)", "key": {"[1]": {"test": "Clearance in monkey at 0.25 mg/kg, iv and 2.5 mg/kg, po", "format": "ADME, organism-based, Macaca mulatta", "conditions": "rhesus monkey, in vivo"}, "[2]": {"molecular_target": "T1, Muscarinic acetylcholine receptor M5 (Homo sapiens) (UniProt P08912)", "T1 sequence (whole entry)": "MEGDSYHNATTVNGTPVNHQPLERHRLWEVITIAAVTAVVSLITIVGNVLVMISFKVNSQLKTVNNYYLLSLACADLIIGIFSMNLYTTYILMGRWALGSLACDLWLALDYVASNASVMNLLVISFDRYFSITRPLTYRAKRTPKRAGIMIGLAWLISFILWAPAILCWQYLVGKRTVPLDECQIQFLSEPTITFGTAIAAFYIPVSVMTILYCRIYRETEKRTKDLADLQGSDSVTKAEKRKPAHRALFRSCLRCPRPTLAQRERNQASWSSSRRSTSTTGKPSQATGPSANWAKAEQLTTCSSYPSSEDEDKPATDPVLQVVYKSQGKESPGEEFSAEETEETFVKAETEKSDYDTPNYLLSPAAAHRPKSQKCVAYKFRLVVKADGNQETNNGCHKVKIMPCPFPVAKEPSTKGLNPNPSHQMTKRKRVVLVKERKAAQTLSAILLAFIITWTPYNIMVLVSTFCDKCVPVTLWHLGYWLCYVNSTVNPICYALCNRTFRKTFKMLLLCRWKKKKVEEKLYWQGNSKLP", "test": "Intrinsic activity at muscarinic M5 receptor (unknown origin) at 10 uM by calcium mobilization assay", "format": "functional"}, "[3]": {"molecular_target": "Adenosine receptor A3 (Homo sapiens) (UniProt P0DMS8)", "sequence (P0DMS8 whole entry)": "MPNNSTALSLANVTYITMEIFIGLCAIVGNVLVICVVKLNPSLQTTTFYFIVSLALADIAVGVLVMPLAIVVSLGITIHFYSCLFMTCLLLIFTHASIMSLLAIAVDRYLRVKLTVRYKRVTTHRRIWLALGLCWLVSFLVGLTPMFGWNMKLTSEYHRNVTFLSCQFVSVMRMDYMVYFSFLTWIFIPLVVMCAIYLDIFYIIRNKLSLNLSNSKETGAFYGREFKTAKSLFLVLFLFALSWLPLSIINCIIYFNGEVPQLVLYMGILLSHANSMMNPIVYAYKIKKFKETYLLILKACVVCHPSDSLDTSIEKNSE", "test": "Inhibition of human adenosine A3 receptor at 3 uM by radioligand binding assay"}, "[4]": {"molecular_target": "Adrenergic receptor alpha-1 (Rattus norvegicus) (UniProt P15823+P23944+P43140)", "test": "Inhibition of rat alpha1 adrenergic receptor at 3 uM by radioligand binding assay"}, "[5]": {"molecular_target": "Alpha-2A adrenergic receptor (Homo sapiens) (UniProt P08913)", "test": "Inhibition of human alpha2A adrenergic receptor at 3 uM by radioligand binding assay"}, "[6]": {"molecular_target": "D(2) dopamine receptor (Homo sapiens) (UniProt P14416)", "sequence (P14416 whole entry)": "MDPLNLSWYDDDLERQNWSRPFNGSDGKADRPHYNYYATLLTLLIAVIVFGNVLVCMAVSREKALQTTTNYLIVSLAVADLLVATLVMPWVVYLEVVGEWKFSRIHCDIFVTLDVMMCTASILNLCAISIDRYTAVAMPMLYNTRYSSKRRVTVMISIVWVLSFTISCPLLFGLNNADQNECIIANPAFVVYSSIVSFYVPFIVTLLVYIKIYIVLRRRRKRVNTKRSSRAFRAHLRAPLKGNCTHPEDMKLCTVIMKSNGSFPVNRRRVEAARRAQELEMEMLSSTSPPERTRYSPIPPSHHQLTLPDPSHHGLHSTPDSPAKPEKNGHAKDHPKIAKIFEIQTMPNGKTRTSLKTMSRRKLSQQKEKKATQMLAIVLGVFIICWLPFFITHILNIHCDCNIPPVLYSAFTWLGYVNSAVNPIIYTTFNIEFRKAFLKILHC", "test": "Inhibition of human dopamine D2S receptor at 3 uM by radioligand binding assay"}, "[7]": {"molecular_target": "D(4) dopamine receptor (Homo sapiens) (UniProt P21917)", "sequence (P21917 whole entry)": "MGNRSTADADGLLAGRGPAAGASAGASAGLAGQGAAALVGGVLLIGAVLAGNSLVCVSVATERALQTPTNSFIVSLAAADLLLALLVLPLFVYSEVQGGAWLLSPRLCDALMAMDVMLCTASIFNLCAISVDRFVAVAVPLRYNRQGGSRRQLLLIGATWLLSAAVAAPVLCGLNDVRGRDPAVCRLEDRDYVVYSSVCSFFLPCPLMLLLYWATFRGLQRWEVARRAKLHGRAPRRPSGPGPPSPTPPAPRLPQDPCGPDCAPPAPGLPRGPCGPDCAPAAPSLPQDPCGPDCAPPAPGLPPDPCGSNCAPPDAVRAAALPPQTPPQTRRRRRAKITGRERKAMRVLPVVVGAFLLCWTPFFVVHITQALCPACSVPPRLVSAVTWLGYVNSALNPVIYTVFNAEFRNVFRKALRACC", "test": "Inhibition of human dopamine D4.2 receptor at 3 uM by radioligand binding assay"}, "[8]": {"molecular_target": "Gamma-aminobutyric acid type B receptor subunit 1 (Homo sapiens) (UniProt Q9UBS5)", "sequence (Q9UBS5 whole entry)": "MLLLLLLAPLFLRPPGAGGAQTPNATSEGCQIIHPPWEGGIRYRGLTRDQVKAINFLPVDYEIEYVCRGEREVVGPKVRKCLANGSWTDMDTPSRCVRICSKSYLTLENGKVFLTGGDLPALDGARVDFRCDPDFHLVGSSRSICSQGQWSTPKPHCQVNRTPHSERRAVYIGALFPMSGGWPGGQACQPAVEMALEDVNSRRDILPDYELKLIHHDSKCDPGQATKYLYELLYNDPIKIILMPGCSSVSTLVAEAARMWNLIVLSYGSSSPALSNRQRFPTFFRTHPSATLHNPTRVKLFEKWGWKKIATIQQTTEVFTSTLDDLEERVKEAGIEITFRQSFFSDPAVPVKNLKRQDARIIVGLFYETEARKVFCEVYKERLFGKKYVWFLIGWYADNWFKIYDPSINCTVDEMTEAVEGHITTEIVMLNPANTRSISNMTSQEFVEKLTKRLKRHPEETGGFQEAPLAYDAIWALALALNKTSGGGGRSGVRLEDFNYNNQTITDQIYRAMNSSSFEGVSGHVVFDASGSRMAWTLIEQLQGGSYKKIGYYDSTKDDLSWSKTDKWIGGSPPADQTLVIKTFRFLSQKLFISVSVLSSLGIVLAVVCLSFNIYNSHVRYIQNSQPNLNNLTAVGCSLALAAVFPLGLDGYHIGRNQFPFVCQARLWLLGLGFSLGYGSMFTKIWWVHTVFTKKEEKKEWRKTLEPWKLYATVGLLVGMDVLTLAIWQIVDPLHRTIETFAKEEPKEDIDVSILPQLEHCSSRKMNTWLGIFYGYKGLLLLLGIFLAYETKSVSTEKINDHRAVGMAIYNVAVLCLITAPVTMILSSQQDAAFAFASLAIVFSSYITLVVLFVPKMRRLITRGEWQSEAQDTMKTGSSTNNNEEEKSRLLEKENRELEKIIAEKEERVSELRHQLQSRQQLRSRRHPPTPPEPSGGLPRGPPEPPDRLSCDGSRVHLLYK", "test": "Inhibition of human GABAB1A receptor at 3 uM by radioligand binding assay"}, "[9]": {"molecular_target": "Glutamate NMDA receptor (Rattus norvegicus) (UniProt P35439+Q00959+Q00960+Q00961+Q62645+Q8VHN2+Q9R1M7)", "test": "Inhibition of rat NMDA receptor phencyclidine binding site at 3 uM by radioligand binding assay", "format": "protein-complex assay"}, "hERG (KCNH2)": {"molecular_target": "hERG (KCNH2) (Homo sapiens, UniProt Q12809)", "sequence (Q12809 whole entry)": "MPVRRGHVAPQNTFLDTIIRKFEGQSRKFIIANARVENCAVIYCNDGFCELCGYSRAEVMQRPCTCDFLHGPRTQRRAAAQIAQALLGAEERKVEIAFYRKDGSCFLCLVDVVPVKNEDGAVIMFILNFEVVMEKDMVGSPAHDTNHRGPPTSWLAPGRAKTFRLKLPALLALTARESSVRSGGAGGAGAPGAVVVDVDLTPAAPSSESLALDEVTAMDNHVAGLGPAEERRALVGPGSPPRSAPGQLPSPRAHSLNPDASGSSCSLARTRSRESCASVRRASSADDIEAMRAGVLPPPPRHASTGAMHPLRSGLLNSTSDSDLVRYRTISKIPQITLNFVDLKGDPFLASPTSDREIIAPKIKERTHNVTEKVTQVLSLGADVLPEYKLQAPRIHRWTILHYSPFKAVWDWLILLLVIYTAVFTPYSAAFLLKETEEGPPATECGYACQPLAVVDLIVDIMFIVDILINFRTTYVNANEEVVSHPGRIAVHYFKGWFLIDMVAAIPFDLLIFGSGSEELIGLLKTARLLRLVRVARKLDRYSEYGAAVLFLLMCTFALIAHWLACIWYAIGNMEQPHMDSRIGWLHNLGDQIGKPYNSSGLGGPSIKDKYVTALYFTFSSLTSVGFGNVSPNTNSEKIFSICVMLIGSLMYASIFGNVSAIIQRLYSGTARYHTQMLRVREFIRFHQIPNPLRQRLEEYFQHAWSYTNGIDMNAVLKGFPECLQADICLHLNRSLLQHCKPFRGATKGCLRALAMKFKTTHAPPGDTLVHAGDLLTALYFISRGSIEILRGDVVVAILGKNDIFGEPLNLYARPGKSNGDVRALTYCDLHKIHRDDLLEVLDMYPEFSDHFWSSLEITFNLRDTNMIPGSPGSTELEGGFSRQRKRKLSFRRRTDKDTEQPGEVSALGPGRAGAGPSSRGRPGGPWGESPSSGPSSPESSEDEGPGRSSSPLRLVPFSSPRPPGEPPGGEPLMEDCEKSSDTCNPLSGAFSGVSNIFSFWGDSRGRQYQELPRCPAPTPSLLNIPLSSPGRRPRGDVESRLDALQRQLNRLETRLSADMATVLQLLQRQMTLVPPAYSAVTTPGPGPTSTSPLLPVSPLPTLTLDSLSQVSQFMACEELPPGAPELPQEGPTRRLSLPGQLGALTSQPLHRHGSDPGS", "test": "Inhibition of human ERG channel at 3 uM by radioligand binding assay"}, "[10]": {"molecular_target": "5-hydroxytryptamine receptor 2B (Homo sapiens) (UniProt P41595)", "sequence (P41595 whole entry)": "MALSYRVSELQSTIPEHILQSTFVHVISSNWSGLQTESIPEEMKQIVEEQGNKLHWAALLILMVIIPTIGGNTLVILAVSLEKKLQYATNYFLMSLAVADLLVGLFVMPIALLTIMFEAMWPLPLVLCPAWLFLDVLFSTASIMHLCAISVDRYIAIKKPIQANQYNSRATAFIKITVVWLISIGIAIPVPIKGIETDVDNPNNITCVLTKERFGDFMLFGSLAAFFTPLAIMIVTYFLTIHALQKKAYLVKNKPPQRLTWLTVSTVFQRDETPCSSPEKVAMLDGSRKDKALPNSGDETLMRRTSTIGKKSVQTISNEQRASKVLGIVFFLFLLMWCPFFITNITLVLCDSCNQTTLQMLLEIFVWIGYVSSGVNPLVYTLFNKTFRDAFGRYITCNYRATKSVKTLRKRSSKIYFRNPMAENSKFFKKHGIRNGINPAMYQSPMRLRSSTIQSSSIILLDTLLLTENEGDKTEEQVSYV", "test": "Inhibition of human 5-HT2B receptor at 3 uM by radioligand binding assay"}, "[11]": {"molecular_target": "Substance-P receptor (Homo sapiens) (UniProt P25103)", "sequence (P25103 whole entry)": "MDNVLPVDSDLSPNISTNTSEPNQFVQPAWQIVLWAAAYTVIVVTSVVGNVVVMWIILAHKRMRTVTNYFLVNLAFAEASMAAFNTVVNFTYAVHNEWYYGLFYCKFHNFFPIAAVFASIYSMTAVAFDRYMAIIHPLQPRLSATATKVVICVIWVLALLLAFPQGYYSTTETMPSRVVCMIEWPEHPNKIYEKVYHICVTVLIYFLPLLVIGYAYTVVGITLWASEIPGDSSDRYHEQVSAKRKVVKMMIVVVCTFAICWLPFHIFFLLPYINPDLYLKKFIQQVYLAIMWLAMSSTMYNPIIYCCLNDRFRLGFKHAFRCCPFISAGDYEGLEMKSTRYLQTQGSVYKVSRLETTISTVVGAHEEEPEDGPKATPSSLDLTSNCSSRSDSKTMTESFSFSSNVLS", "test": "Inhibition of human NK1 receptor at 3 uM by radioligand binding assay"}, "[12]": {"molecular_target": "Sodium-dependent dopamine transporter (Homo sapiens) (UniProt Q01959)", "sequence (Q01959 whole entry)": "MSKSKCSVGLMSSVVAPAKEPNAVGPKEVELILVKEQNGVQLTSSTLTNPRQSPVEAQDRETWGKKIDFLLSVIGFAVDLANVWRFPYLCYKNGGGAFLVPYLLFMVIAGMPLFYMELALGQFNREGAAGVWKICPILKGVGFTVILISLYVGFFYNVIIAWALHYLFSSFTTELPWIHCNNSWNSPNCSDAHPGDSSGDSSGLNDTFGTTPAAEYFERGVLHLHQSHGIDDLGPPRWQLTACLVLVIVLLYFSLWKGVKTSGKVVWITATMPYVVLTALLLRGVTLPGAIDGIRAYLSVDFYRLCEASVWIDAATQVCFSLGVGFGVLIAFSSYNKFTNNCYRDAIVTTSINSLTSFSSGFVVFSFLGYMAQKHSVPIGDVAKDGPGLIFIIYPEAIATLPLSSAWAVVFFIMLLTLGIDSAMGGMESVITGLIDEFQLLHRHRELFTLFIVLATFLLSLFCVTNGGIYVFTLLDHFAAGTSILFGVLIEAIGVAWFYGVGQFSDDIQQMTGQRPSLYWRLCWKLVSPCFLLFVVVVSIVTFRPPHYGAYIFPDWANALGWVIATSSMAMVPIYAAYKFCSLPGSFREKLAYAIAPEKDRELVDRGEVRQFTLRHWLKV", "test": "Inhibition of human DAT at 3 uM by radioligand binding assay"}, "[13]": {"test": "Half life in rat at 0.25 mg/kg, iv and 2.5 mg/kg, po", "format": "ADME, organism-based", "conditions": "in vivo"}, "Cricetinae": {"tested_on": "Cricetinae", "conditions": "3 uM", "description": "Inhibition of hamster potassium channel at 3 uM by radioligand binding assay"}}}
{"smiles": "CCOC(=O)N1CCC(CN2CCC3(CC2)CN(C(=O)N(C)C)c2ncccc23)CC1.O=C(O)/C=C/C(=O)O", "values": [{"measurement": "clearance", "setting": "[1]", "value": 16.5, "unit": "mL/min/kg"}, {"measurement": "Intrinsic activity", "setting": "[2]", "value": 11, "unit": "%"}, {"measurement": "inhibition", "setting": "[3]", "value": -8, "unit": "%"}, {"measurement": "inhibition", "setting": "[4]", "value": 21, "unit": "%"}, {"measurement": "inhibition", "setting": "[5]", "value": -7, "unit": "%"}, {"measurement": "inhibition", "setting": "[6]", "value": 2, "unit": "%"}, {"measurement": "inhibition", "setting": "[7]", "value": 4, "unit": "%"}, {"measurement": "inhibition", "setting": "[8]", "value": 2, "unit": "%"}, {"measurement": "inhibition", "setting": "[9]", "value": 0, "unit": "%"}, {"measurement": "inhibition at 3 µM", "setting": "hERG (KCNH2)", "value": 0, "unit": "%"}, {"measurement": "inhibition", "setting": "[10]", "value": 11, "unit": "%"}, {"measurement": "inhibition", "setting": "[11]", "value": 2, "unit": "%"}, {"measurement": "inhibition", "setting": "[12]", "value": -2, "unit": "%"}, {"measurement": "half-life", "setting": "[13]", "value": 54, "unit": "min"}, {"measurement": "inhibition", "setting": "Cricetinae", "value": 6, "unit": "%"}]}
